Measurements from patent publication US20240158348A1, “HERBICIDAL CYCLIC AMIDES N-SUBSTITUTED WITH A HALOALKYLSULFONYLANILIDE GROUP” (FMC Corporation, priority 2021, published 2024).

Legend:
Format in all cases: in vivo
[1] = system: blackgrass (Alopecurus myosuroides); assay: Test C preemergence, blackgrass; settings: 0 is no effect, 100 is complete control
Text: Seeds of plant species selected from blackgrass (Alopecurus myosuroides), corn (Zea mays), foxtail, giant (giant foxtail, Setaria faberi), goosegrass (Eleusine indica), kochia (Bassia scoparia), oat, wild (wild oat, Avena fatua), pigweed, palmer (palmer amaranth, Amaranthus palmeri), ragweed (common ragweed, Ambrosia artemisiifolia), ryegrass, Italian (Italian ryegrass, Lolium multiflorum), soybean (Glycine max) and wheat (Triticum aestivum) were planted into a blend of loam soil and sand and treated preemergence with a directed soil spray using test chemicals formulated in a non-phytotoxic solvent mixture which included a surfactant.
At the same time, plants selected from these crop and weed species and also galium (catchweed bedstraw, Galium aparine) and horseweed (Erigeron canadensis) were planted in pots containing the same blend of loam soil and sand and treated with postemergence applications of test chemicals formulated in the same manner. Plants ranged in height from 2 to 10 cm and were in the one- to two-leaf stage for the postemergence treatment. Treated plants and untreated controls were maintained in a greenhouse for 10 or 12 days, after which time all treated plants were compared to untreated controls and visually evaluated for injury. Plant response ratings, summarized in Table A, are based on a 0 to 100 scale where 0 is no effect and 100 is complete control. A dash (-) response means no test result.

[2] = system: corn (Zea mays); assay: Test C preemergence, corn; settings: 0 is no effect, 100 is complete control
Procedure, shortened: (§1)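 Steps: sow in loam soil blended with sand; treat soil preemergence by directed spray, or treat young plants (2–10 cm, one to two leaves) postemergence; hold in greenhouse 10 or 12 days; rate injury visually relative to untreated controls on a 0–100 scale.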

[3] = system: foxtail, giant (giant foxtail, Setaria faberi); assay: Test C preemergence, giant foxtail; settings: 0 is no effect, 100 is complete control
Procedure, shortened: (§2)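 Plants grown in a sand and loam soil blend received the formulated test chemicals either as a preemergence soil-directed spray or postemergence at 2 to 10 cm height. After 10 or 12 greenhouse days, injury was assessed visually, with 100 meaning complete control.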

[4] = system: goosegrass (Eleusine indica); assay: Test C preemergence, goosegrass; settings: 0 is no effect, 100 is complete control
Procedure, shortened: as §1

[5] = system: kochia (Bassia scoparia); assay: Test C preemergence, kochia; settings: 0 is no effect, 100 is complete control
Procedure, shortened: as §2

[6] = system: oat, wild (wild oat, Avena fatua); assay: Test C preemergence, wild oat; settings: 0 is no effect, 100 is complete control
Procedure, shortened: as §2

[7] = system: pigweed, palmer (palmer amaranth, Amaranthus palmeri); assay: Test C preemergence, palmer amaranth; settings: 0 is no effect, 100 is complete control
Procedure, shortened: as §2

[8] = system: ragweed (common ragweed, Ambrosia artemisiifolia); assay: Test C preemergence, ragweed; settings: 0 is no effect, 100 is complete control
Procedure, shortened: as §1

[9] = system: ryegrass, Italian (Italian ryegrass, Lolium multiflorum); assay: Test C preemergence, Italian ryegrass; settings: 0 is no effect, 100 is complete control
Procedure, shortened: as §2

[10] = system: soybean (Glycine max); assay: Test C preemergence, soybean; settings: 0 is no effect, 100 is complete control
Procedure, shortened: as §2

[11] = system: wheat (Triticum aestivum); assay: Test C preemergence, wheat; settings: 0 is no effect, 100 is complete control
[12] = system: blackgrass (Alopecurus myosuroides); assay: Test C postemergence, blackgrass; settings: 31 g ai/ha Postemergence; visual injury, 0 to 100 scale (0 no effect, 100 complete control)
Procedure, shortened: as §2

[13] = system: corn (Zea mays); assay: Test C postemergence, corn
[14] = system: foxtail, giant (giant foxtail, Setaria faberi); assay: Test C postemergence, giant foxtail
[15] = system: goosegrass (Eleusine indica); assay: Test C postemergence, goosegrass
Procedure, shortened: as §2

[16] = system: kochia (Bassia scoparia); assay: Test C postemergence, kochia
Procedure, shortened: as §2

[17] = system: oat, wild (wild oat, Avena fatua); assay: Test C postemergence, wild oat
[18] = system: pigweed, palmer (palmer amaranth, Amaranthus palmeri); assay: Test C postemergence, palmer amaranth; settings: visual injury, 0 to 100 scale (0 no effect, 100 complete control)
Procedure, shortened: as §2

[19] = system: ragweed (common ragweed, Ambrosia artemisiifolia); assay: Test C postemergence, ragweed; settings: visual injury, 0 to 100 scale (0 no effect, 100 complete control)
Procedure, shortened: as §2

[20] = system: ryegrass, Italian (Italian ryegrass, Lolium multiflorum); assay: Test C postemergence, Italian ryegrass; settings: visual injury, 0 to 100 scale (0 no effect, 100 complete control)
Procedure, shortened: as §2

[21] = system: soybean (Glycine max); assay: Test C postemergence, soybean; settings: visual injury, 0 to 100 scale (0 no effect, 100 complete control)
[22] = system: wheat (Triticum aestivum); assay: Test C postemergence, wheat; settings: visual injury, 0 to 100 scale (0 no effect, 100 complete control)
Procedure, shortened: as §2

[23] = system: galium (catchweed bedstraw, Galium aparine); assay: Test C postemergence, galium
[24] = system: horseweed (Erigeron canadensis); assay: Test C postemergence, horseweed
Procedure, shortened: as §2

[25] = system: barnyardgrass (Echinochloa crusgalli); assay: Test D flooded paddy test, barnyardgrass; design: key: 0 = no effect, 100 = complete control; settings: 250 g ai/ha, Flood; applied to paddy water at 2-leaf stage; visual rating after 13 days; scale 0 (no effect) to 100 (complete control)
Procedure, shortened: (§3)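 Test compounds applied directly to paddy water after pots were flooded to 3 cm above soil, with plants at 2-leaf stage; depth held throughout. Greenhouse for 13 days, then visual rating versus controls on 0–100 scale (0 no effect, 100 complete control); dash means no result.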

[26] = system: ducksalad (Heteranthera limosa); assay: Test D flooded paddy test, ducksalad; design: key: 0 = no effect, 100 = complete control; settings: 250 g ai/ha, Flood; applied to paddy water at 2-leaf stage; visual rating after 13 days; scale 0 (no effect) to 100 (complete control)
Procedure, shortened: as §3

[27] = system: rice (Oryza sativa); assay: Test D flooded paddy test, rice; design: key: 0 = no effect, 100 = complete control; settings: 250 g ai/ha, Flood; applied to paddy water at 2-leaf stage; visual rating after 13 days; scale 0 (no effect) to 100 (complete control)
Procedure, shortened: as §3

[28] = system: sedge, umbrella (small-flower umbrella sedge, Cyperus difformis); assay: Test D flooded paddy test, umbrella sedge; design: key: 0 = no effect, 100 = complete control; settings: 250 g ai/ha, Flood; applied to paddy water at 2-leaf stage; visual rating after 13 days; scale 0 (no effect) to 100 (complete control)
Procedure, shortened: as §3

[29] = system: blackgrass (Alopecurus myosuroides); assay: Test C postemergence, blackgrass; settings: 125 g ai/ha Postemergence; 0 is no effect, 100 is complete control
[30] = 31 g ai/ha Postemergence, visual injury, 0 to 100 scale (0 no effect, 100 complete control)
[31] = 125 g ai/ha Postemergence, 0 is no effect, 100 is complete control

## Cc1cc(C)c(N2CCC(OC3COC3)C2=O)cc1NS(=O)(=O)C(F)(F)F (stereo not shown) [Compound 34]
[1]; 31 g ai/ha Preemergence
  Plant response rating (0 to 100 scale), Blackgrass: 30
[1]; 125 g ai/ha Preemergence
  Plant response rating (0 to 100 scale), Blackgrass: 50
[2]; 31 g ai/ha Preemergence
  Plant response rating (0 to 100 scale), Corn: 10
[2]; 125 g ai/ha Preemergence
  Plant response rating (0 to 100 scale), Corn: 80
[3]; 31 g ai/ha Preemergence
  Plant response rating (0 to 100 scale), Foxtail, Giant: 90
[3]; 125 g ai/ha Preemergence
  Plant response rating (0 to 100 scale), Foxtail, Giant: 90
[4]; 31 g ai/ha Preemergence
  Plant response rating (0 to 100 scale), Goosegrass: 30
[4]; 125 g ai/ha Preemergence
  Plant response rating (0 to 100 scale), Goosegrass: 100
[5]; 31 g ai/ha Preemergence
  Plant response rating (0 to 100 scale), Kochia: 90
[5]; 125 g ai/ha Preemergence
  Plant response rating (0 to 100 scale), Kochia: 100
[6]; 31 g ai/ha Preemergence
  Plant response rating (0 to 100 scale), Oat, Wild: 30
[6]; 125 g ai/ha Preemergence
  Plant response rating (0 to 100 scale), Oat, Wild: 80
[7]; 31 g ai/ha Preemergence
  Plant response rating (0 to 100 scale), Pigweed, Palmer: 100
[7]; 125 g ai/ha Preemergence
  Plant response rating (0 to 100 scale), Pigweed, Palmer: 100
[8]; 31 g ai/ha Preemergence
  Plant response rating (0 to 100 scale), Ragweed: 50
[8]; 125 g ai/ha Preemergence
  Plant response rating (0 to 100 scale), Ragweed: 100
[9]; 31 g ai/ha Preemergence
  Plant response rating (0 to 100 scale), Ryegrass, Italian: 40
[9]; 125 g ai/ha Preemergence
  Plant response rating (0 to 100 scale), Ryegrass, Italian: 80
[10]; 31 g ai/ha Preemergence
  Plant response rating (0 to 100 scale), Soybean: 40
[10]; 125 g ai/ha Preemergence
  Plant response rating (0 to 100 scale), Soybean: 90
[11]; 31 g ai/ha Preemergence
  Plant response rating (0 to 100 scale), Wheat: 30
[11]; 125 g ai/ha Preemergence
  Plant response rating (0 to 100 scale), Wheat: 80
[12]
  Blackgrass plant response rating: 30
[13]; [30]
  Corn plant response rating: 60
[13]; [31]
  Plant response rating (0 to 100 scale), Corn: 90
[14]; [30]
  Foxtail, Giant plant response rating: 40
[14]; [31]
  Plant response rating (0 to 100 scale), Foxtail, Giant: 90
[15]; [30]
  Goosegrass plant response rating: 30
[15]; [31]
  Plant response rating (0 to 100 scale), Goosegrass: 80
[16]; [30]
  Kochia plant response rating: 80
[16]; [31]
  Plant response rating (0 to 100 scale), Kochia: 90
[17]; [30]
  Oat, Wild plant response rating: 30
[17]; [31]
  Plant response rating (0 to 100 scale), Oat, Wild: 70
[18]; 31 g ai/ha Postemergence
  Pigweed, Palmer plant response rating: 70
[18]; 125 g ai/ha Postemergence
  Pigweed, Palmer plant response rating: 100
[19]; 31 g ai/ha Postemergence
  Ragweed plant response rating: 90
[19]; 125 g ai/ha Postemergence
  Ragweed plant response rating: 90
[20]; 31 g ai/ha Postemergence
  Ryegrass, Italian plant response rating: 40
[20]; 125 g ai/ha Postemergence
  Ryegrass, Italian plant response rating: 90
[21]; 31 g ai/ha Postemergence
  Soybean plant response rating: 60
[21]; 125 g ai/ha Postemergence
  Soybean plant response rating: 70
[22]; 31 g ai/ha Postemergence
  Wheat plant response rating: 70
[22]; 125 g ai/ha Postemergence
  Wheat plant response rating: 80
[23]; [30]
  Galium plant response rating: 100
[23]; [31]
  Plant response rating (0 to 100 scale), Galium: 100
[24]; [30]
  Horseweed plant response rating: 90
[24]; [31]
  Plant response rating (0 to 100 scale), Horseweed: 100
[25]
  Plant response rating, Barnyardgrass: 35
[26]
  Plant response rating, Ducksalad: 65
[27]
  Plant response rating, Rice: 25
[28]
  Plant response rating, Sedge, Umbrella: 80
[29]
  Plant response rating (0 to 100 scale), Blackgrass: 60
